Results published in patent US10093627B2, “Tetrahydroquinoline derivatives and their use as Epac inhibitors” (Institut National de la Sante et de la Recherche Medicale …, priority 2012, dated 2018).

Experiments:
[1] = target: T1, Epac1 (Homo sapiens, UniProt O95398); assay: In vitro GEF activity (initial velocity of GDP exchange on Rap1A) of Epac1; type: biochemical; settings: for Antagonism of cAMP-activated Epac1 GEF activity: compound 30 μM, 300 μM cAMP, FIG. 6C; for EC50: Epac1 GEF activity toward Rap1, Epac1 activated by 20 μM 007, mean of n=4 to 9 independent determinations; for Dose-response curve of inhibition of 007-activated Epac1 GEF activity, comparison between compounds: Epac1 activated by 20 μM 007, FIG. 5
T1 construct: Recombinant human Epac1 (residues 149-881), deleted of its Dishevelled, Egl-10, and Pleckstrin (DEP) domain; made in house
T1 sequence (O95398 149-881 isoform O95398-3): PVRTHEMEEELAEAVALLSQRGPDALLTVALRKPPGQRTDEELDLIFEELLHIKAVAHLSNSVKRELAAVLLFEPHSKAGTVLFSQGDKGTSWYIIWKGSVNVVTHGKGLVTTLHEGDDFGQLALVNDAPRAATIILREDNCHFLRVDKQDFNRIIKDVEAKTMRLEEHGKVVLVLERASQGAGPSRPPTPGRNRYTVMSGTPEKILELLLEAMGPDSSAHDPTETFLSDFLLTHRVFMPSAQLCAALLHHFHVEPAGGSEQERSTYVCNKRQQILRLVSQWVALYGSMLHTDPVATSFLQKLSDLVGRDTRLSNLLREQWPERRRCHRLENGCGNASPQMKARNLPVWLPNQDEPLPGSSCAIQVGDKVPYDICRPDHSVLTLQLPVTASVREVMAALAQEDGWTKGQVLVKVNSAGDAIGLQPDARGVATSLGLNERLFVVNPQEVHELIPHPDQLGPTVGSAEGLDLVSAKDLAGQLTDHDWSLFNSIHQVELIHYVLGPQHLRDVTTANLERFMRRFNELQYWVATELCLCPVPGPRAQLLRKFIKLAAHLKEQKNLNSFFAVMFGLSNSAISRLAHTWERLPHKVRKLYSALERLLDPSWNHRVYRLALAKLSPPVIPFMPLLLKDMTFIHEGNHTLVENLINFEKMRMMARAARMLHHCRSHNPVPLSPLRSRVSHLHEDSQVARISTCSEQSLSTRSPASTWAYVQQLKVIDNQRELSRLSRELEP
Protocol: Protein NCBI Reference Sequences for human Epac1 and Epac2 are NP_006096 and NP_008954, respectively. Recombinant human Epac1 (residues 149-881), deleted of its Dishevelled, Egl-10, and Pleckstrin (DEP) domain, and human Rap1A were produced with GST as a fusion tag (D. Courilleau et al., Identification of a tetrahydroquinoline analog as a pharmacological inhibitor of the cAMP-binding protein Epac, J. Biol. Chem. 287 (2012) 44192-44202).
(§1) In vitro GDP exchange catalyzed by Epac was measured using purified recombinant Epac isoforms and Rap1A loaded with Bodipy-GDP, as described in D. Courilleau, et al (above mentioned). The GEF activity of Epac proteins was initiated by injection of the agonist. Stock solutions of CE3F4 and its analogs (12 mM in 100% DMSO) were kept at −20° C. and were diluted in assay buffer (0.67% final DMSO concentration) just before use for GDP exchange assays. The release of Bodipy-GDP was measured in real time as the decay of fluorescence. A single exponential was fit to the time-course data using the Graphpad Prism program. The initial velocity (Vi) of GDP exchange on Rap1 was calculated as described in D. Courilleau et al.).
(§2) Data are expressed as mean±S.D. Differences in quantitative variables were examined by unpaired one- or two-tailed Student's t test. EC50 and IC50 values were computed according to a four-parameters dose-response model and compared on the basis of the extra sum-of square F test, using Graphpad Prism. Two-tailed Wilcoxon matched-pair signed rank tests were performed using GraphPad Prism.

[2] = target: T2, Epac2(B) (Homo sapiens, UniProt Q8WZA2); assay: In vitro GEF activity (initial velocity of GDP exchange on Rap1A) of Epac2(B); type: biochemical; settings: for Antagonism of cAMP-activated Epac2(B) GEF activity: compound 30 μM, 300 μM cAMP, FIG. 6C
T2 construct: Human Epac2(B) (amino acids 283-1011) lacks the first 283 amino acids of Epac2; made in house; host or cells: Escherichia coli Rosetta 2(DE3)
T2 sequence (Q8WZA2 283-1011): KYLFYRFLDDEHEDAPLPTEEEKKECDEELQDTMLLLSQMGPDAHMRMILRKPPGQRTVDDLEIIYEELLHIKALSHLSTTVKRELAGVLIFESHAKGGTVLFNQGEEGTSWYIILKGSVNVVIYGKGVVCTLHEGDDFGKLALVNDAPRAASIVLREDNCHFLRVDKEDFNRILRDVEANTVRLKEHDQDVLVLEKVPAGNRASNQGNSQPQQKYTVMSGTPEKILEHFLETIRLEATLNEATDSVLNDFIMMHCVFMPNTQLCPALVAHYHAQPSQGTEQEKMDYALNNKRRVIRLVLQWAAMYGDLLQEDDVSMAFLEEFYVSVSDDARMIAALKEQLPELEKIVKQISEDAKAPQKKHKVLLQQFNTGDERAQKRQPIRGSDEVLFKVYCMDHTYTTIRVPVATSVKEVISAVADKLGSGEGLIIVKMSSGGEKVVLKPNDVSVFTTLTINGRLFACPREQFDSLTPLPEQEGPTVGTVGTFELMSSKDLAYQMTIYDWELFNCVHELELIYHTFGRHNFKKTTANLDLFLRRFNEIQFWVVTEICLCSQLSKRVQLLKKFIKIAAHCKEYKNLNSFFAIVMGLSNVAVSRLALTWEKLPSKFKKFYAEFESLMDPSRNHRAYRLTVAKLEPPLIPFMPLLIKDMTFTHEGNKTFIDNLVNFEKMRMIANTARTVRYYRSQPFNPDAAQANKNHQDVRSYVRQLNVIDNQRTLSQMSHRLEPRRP
Text: Human Epac2(AB) (amino acids 43-1011) carries both the CNB-A and the CNB-B domains. Human Epac2(B) (amino acids 283-1011) lacks the first 283 amino acids of Epac2. It is therefore deleted of its CNB-A and DEP domains, but retains the CNB-B domain and the full catalytic region. Epac2(AB) was obtained by HindIII/NotI restriction and Epac2(B) was obtained by Ssp1/Not1 restriction of a human Epac2A cDNA (a gift from Ann M Graybiel, Department of Brain and Cognitive Sciences, MIT, Cambridge). Both cDNA fragments were inserted into pET41a (Novagen), expressed in Escherichia coli Rosetta 2(DE3) (Novagen), and the GST-tagged fusion proteins were purified by nickel-nitrilotriacetic acid beads (Qiagen), as described in D. Courilleau, et al., Identification of a tetrahydroquinoline analog as a pharmacological inhibitor of the cAMP-binding protein Epac, J. Biol. Chem. 287 (2012) 44192-44202).
as §1, §2

[3] = test system: Epac1-induced Rap1 activation in HEK293 cells; assay: Epac1-induced Rap1 activation, Rap1-GTP pull-down in HEK293 cells; type: cell-based; settings: HEK293 cells overexpressing Epac1 vs empty vector; FIG. 2A
Protocol: HEK293 cells were transfected with either pcDNA3 control vector or Epac1 (see FIG. 2A).
HEK293 cells were transfected with Epac1 and 24 h after transfection, cells were preincubated or not with CE3F4 for 30 min and were then treated or not with Sp-007 (10 μM) for 10 min (see FIG. 2B).
HEK293 cells overexpressing β1AR (Beta-1 adrenergic receptors) and transfected with Epac1 were pretreated or not with CE3F4 and stimulated or not with Iso (10 μM) for 10 min (see FIG. 2C).
Amounts of Rap1-GTP were determined by pull-down assays (see Material and Methods). The bar graph represents the mean±S.E.M. of 5 (FIG. 2A, 2B) or 3 (FIG. 2C) independent experiments. Results are expressed as the percentage of unstimulated control cells.
Ras and Rap1 pull-down experiments were performed using a GST fusion protein containing respectively the Ras binding domain of Raf1-RBD and the Rap1 binding domain of Ral-GDS as previously described (Métrich et al., 2008). Cells were starved for 1 h before stimulation in MEM free with penicillin-streptomycin (1%). After stimulation, cells were lysed in RIPA buffer (50 mM Tris-HCl, pH 7.5; 500 mM NaCl; 20 mM MgCl2; 0.5% deoxycholic acid; 0.1% SDS; 1% Triton X-100; 1 mM PMSF; protease and phosphatase inhibitors) and 500 μg of protein were incubated with either GST-Raf1-RBD (for Ras) or Ral-GDS (for Rap1) coupled to glutathione-Sepharose beads (Amersham Biosciences) for 1h at 4° C. Beads were then washed three times in washing buffer (50 mM Tris-HCl, pH 7.5; 150 mM NaCl, 20 mM MgCl2, 1% Triton X-100; 0.1 mM PMSF; protease and phosphatase inhibitors). Rap1-GTP or Ras samples and corresponding total lysates were separated on SDS-PAGE gels and transferred onto a polyvinylidene difluoride (PVDF) membrane (Amersham Pharmacia Biotech).

[4] = target: T1, Epac1; assay: Epac1 nucleotide exchange activity, multipoint (time-course) method, bGDP-loaded GST-Rap1A; type: biochemical; settings: 25 μM compound 009; 2 μM compound 007; FIG. 1
Protocol: Epac1 nucleotide exchange activity was measured: • in the absence of compound 007, • or in the presence of 2 μM of compound 007, either alone or with 25 μM of compound 009, • or with 20 μM of CE3F4.
Variations of RFU (Relative Fluorescence Units) were studied as a function of time and fitted to single exponentials. Reported values are mean±SEM (n=3). (see Materiel and Methods).
Concerning FIG. 1, a “multipoint” (time-course) method was used. All components except the agonist (007) were mixed in a well and the exchange activity of Epac1 was initiated by injection of the agonist. GST-Rapt was preloaded with a fluorescent derivative of GDP, and the Epac1-catalyzed nucleotide exchange was measured using a large excess of non-fluorescent GDP, by taking advantage of the spectroscopic difference between free and Rap1-bound fluorescently labeled GDP. The principle of the method is similar to that reported in particular by Van den Berghe et al. (1997; Oncogene 15, 845), except that Bodipy FL-labeled GDP (bGDP) was used here, rather than 2′,3′-bis(O)—N-methylanthraniloyl-GDP (mant-GDP). […]

| SMILES | Antagonism of cAMP-activated Epac1 GEF activity [1] | Antagonism of cAMP-activated Epac2(B) GEF activity [2] | other results |
| --- | --- | --- | --- |
| CC1CCc2c(cc(Br)c(F)c2Br)N1 (stereo not shown) [h)] | antagonistic properties |  |  |
| CC1CCc2c(Br)cc(Br)cc2N1C=O (stereo not shown) [e)] | antagonistic properties | antagonistic properties |  |
| CC1CCc2c(ccc(F)c2Br)N1C=O (stereo not shown) [a)] | antagonistic properties | antagonistic properties |  |
| C[C@@H]1CCc2c(cc(Br)c(F)c2Br)N1C=O [(R)-CE3F4] |  |  | IC50 smaller than that of racemic CE3F4 (Epac1 GEF activity) ([1]; 007-activated Epac1): about 2 fold; IC50 smaller than the IC50 values of (S)-CE3F4 and compound f) (Epac1 GEF activity) ([1]; 007-activated Epac1): about 10 fold; EC50 [1]: 5.8 µM; Dose-response curve of inhibition of 007-activated Epac1 GEF activity, comparison between compounds [1]: more potent Epac inhibitor; IC50 ([1]; Epac1 activated by 300 μM cAMP): 4.2 µM; IC50 ([2]; Epac2(B) activated by 300 μM cAMP): 44 µM |
| CC1CCc2cc(F)c(Br)cc2N1C=O (stereo not shown) [b), reference compound] | no significant inhibitory activity | no significant inhibitory activity |  |
| CC1CCc2c(ccc(F)c2C=O)N1C=O (stereo not shown) [d), reference compound] | no significant inhibitory activity | no significant inhibitory activity |  |
| O=CN1CCCc2c1cc(Br)c(F)c2Br [Compound f)] | antagonistic properties | antagonistic properties | EC50 [1]: 50 µM; Dose-response curve of inhibition of 007-activated Epac1 GEF activity, comparison between compounds [1]: not significantly different |
| CC(=O)N1c2cc(Br)c(F)c(Br)c2CCC1C (stereo not shown) [g)] | antagonistic properties |  |  |
| CO[C@H]1C2OP(O)(=S)OC[C@H]2O[C@H]1n1c(Sc2ccc(Cl)cc2)nc2c(N)ncnc21 (stereo partly shown) [Sp-007, Sp-8-pCPT-2′-O-Me-cAMPS, reference compound] |  |  | Rap1 activation (Rap1-GTP/Total Rap1) by agonist [3]: robust activation of Rap1 |
| Nc1nc2c(nc(Sc3ccc(Cl)cc3)n2[C@@H]2O[C@@H]3COP(=O)(O)O[C@H]3[C@H]2O)c(=O)[nH]1 [Compound 009, 8-(4-chlorophenylthio)-guanosine-3′,5′-cyclic monophosphate, reference compound] |  |  | Inhibition of the exchange reaction induced by Epac1 plus 007 [4]: inhibitory effect |
